Like-named read-outs stand apart in the source and are kept apart here.
Columns and labels:
B16 melanoma [1] = assay: potency distribution in mice with tangled B16 melanoma after IV administration (direct radiometry of organs and tissues); conditions: for Urinary bladder: full urinary bladder; for Blood: mice with B16 melanoma
Procedure: (§1) In vivo experiments were conducted using laboratory female mice (F1 CBAxC57B1 hybrids, 18-20g). The animals were obtained from the brooder of the Biomedical Technology Research Centre at the Russian Academy of Medical Sciences in Andreevka. Pigmented B16 mice melanoma was tangled. B16 melanoma cells suspension was administered SC in aseptic conditions. Tumour growth was investigated visually. The animals were enrolled into the experiment 9-12 days after the inoculation, when the tumour diameter was 8-12cm.
(§2) During the experiment the animals were housed in standard conditions (special room, recommended food, free access to fresh water, natural lighting).
(§3) Urinary bladder filling was achieved by suturing the outer urethral orifice. The radioactivity in the sampled organs and tissues was measured by the direct radiometry method. 5 experiments were conducted, at least 3 animals were used for each experimental point.

[2] = as above; conditions: female, F1 CBAxC57B1 hybrids, mouse, tumour and muscle, iv, total radioactivity
Procedure: as §1, §2, §3

B16 melanoma [3] = conditions: mouse, in vivo
Procedure: as §1, §2, §3

in vivo = conditions: female, F1 CBAxC57B1 hybrids, mouse, iv, total radioactivity
Procedure: as §1, §2, §3

Structure (SMILES) | Kidneys (B16 melanoma [1]; 30 min after IV administration) | Liver (B16 melanoma [1]; 30 min after IV administration) | Muscle (B16 melanoma [1]; 30 min after IV administration) [%/g] | Tumour (B16 melanoma [1]; 30 min after IV administration) [%/g] | Blood (B16 melanoma [1]; 30 min after IV administration) | Kidneys (B16 melanoma [1]; 60 min after IV administration) | Liver (B16 melanoma [1]; 60 min after IV administration) | Muscle (B16 melanoma [1]; 60 min after IV administration) [%/g] | Tumour (B16 melanoma [1]; 60 min after IV administration) [%/g] | Blood (B16 melanoma [1]; 60 min after IV administration) | further results
C[C@@H](O)[C@H](NC(=O)[C@@H]1CSSC[C@H](NC(=O)[C@@H](N)CCCCNC(=O)CN2CCN(CC(=O)O)CCN(CC(=O)O)CCN(CC(=O)O)CC2)C(=O)N[C@@H](Cc2ccc(O)cc2)C(=O)N[C@H](Cc2c[nH]c3ccccc23)C(=O)N[C@@H](CCCCN)C(=O)N[C@@H]([C@@H](C)O)C(=O)N1)C(=O)O [1b, marked ^68Ga, metal not drawn] | 3.4 ± 0.3 % of the administered dose | 1.8 ± 0.7 % of the administered dose | 0.6 ± 0.1 | 2.5 ± 0.7 | 2.4 ± 0.4 % of the administered dose | 5.4 ± 0.6 % of the administered dose | 1.1 ± 0.1 % of the administered dose | 0.06 ± 0.01 | 1.2 ± 0.2 | 0.5 ± 0.07 % of the administered dose | Urinary bladder (B16 melanoma [1]; 30 min after IV administration): 53.4 ± 7.7 % of the administered dose; Urinary bladder (B16 melanoma [1]; 60 min after IV administration): 35.5 ± 3.1 % of the administered dose; tissue to tissue ratio at 0.5 h [2]: 4.2
C[C@@H](O)[C@H](NC(=O)[C@@H]1CSSC[C@H](NC(=O)[C@H](CCCCN)NC(=O)CN2CCN(CC(=O)O)CCN(CC(=O)O)CCN(CC(=O)O)CC2)C(=O)N[C@@H](Cc2ccc(O)cc2)C(=O)N[C@H](Cc2c[nH]c3ccccc23)C(=O)N[C@@H](CCCCN)C(=O)N[C@@H]([C@@H](C)O)C(=O)N1)C(=O)O [Compound 1a] |  |  |  |  |  |  |  |  |  |  | accumulation in tumour as compared to ^68Ga-marked DE (B16 melanoma [3]): larger; blood clearance as compared to ^68Ga-marked DE (B16 melanoma [3]): faster blood clearance; renal clearance as compared to ^68Ga-marked DE (B16 melanoma [3]): faster renal clearance; tissue to tissue ratio at 1 h (in vivo): 7.5
C[C@@H](O)[C@H](NC(=O)[C@@H]1CSSC[C@H](NC(=O)[C@@H](Cc2ccccc2)NC(=O)CN2CCN(CC(=O)O)CCN(CC(=O)O)CCN(CC(=O)O)CC2)C(=O)N[C@@H](Cc2ccc(O)cc2)C(=O)N[C@H](Cc2c[nH]c3ccccc23)C(=O)N[C@@H](CCCCN)C(=O)N[C@@H]([C@@H](C)O)C(=O)N1)C(=O)O [DE, marked ^68Ga, metal not drawn, reference compound] | 1.6 ± 0.6 % of the administered dose | 2.8 ± 1.5 % of the administered dose | 0.6 ± 0.04 | 1.0 ± 0.2 | 2.6 ± 0.5 % of the administered dose | 1.6 ± 0.6 % of the administered dose | 2.8 ± 0.5 % of the administered dose | 0.5 ± 0.04 | 0.5 ± 0.24 | 2.6 ± 0.6 % of the administered dose | 
C[C@@H](O)[C@H](NC(=O)[C@@H]1CSSC[C@H](NC(=O)[C@@H](N)CCCCNC(=O)CN2CCN(CC(=O)O)CCN(CC(=O)O)CCN(CC(=O)O)CC2)C(=O)N[C@@H](Cc2ccc(O)cc2)C(=O)N[C@H](Cc2c[nH]c3ccccc23)C(=O)N[C@@H](CCCCN)C(=O)N[C@@H]([C@@H](C)O)C(=O)N1)C(=O)O [Compound 1b] |  |  |  |  |  |  |  |  |  |  | accumulation in tumour as compared to ^68Ga-marked comparison substance (B16 melanoma [1]; 60 min after administration, fold higher than DE): 2.4 times; accumulation in tumour as compared to ^68Ga-marked DE (B16 melanoma [1]; ^68Ga-marked, in words): larger; blood clearance as compared to ^68Ga-marked DE (B16 melanoma [1]; ^68Ga-marked, in words): faster blood clearance; renal clearance as compared to ^68Ga-marked DE (B16 melanoma [1]; ^68Ga-marked, in words): faster renal clearance; ratio of accumulation in tumour and muscle as compared to DE (B16 melanoma [1]; both in 30 and in 60 minutes after administration, in words): higher; tissue to tissue ratio at 1 h [2]: 20
C[C@@H](O)[C@H](NC(=O)[C@@H]1CSSC[C@H](NC(=O)[C@H](CCCCN)NC(=O)CN2CCN(CC(=O)O)CCN(CC(=O)O)CCN(CC(=O)O)CC2)C(=O)N[C@@H](Cc2ccc(O)cc2)C(=O)N[C@H](Cc2c[nH]c3ccccc23)C(=O)N[C@@H](CCCCN)C(=O)N[C@@H]([C@@H](C)O)C(=O)N1)C(=O)O [1a, marked ^68Ga, metal not drawn] |  |  |  |  |  |  |  |  |  |  | tissue to tissue ratio at 0.5 h (in vivo): 2.4

— patent publication EP2695891B1, “OCTAPEPTIDE, RADIOPHARMACEUTICAL AGENT BASED THEREON AND METHOD FOR DIAGNOSING TUMORS” (Aktsionernoe Obschestvo "Pharm-Sintez", priority 2011, dated 2018)
